Legend:
[1] = target: TrkA (histidine-tagged recombinant human TrkA, cytoplasmic domain) (Homo sapiens (Human), UniProt P04629); assay: TrkA ELISA Assay; type: biochemical; details: Table 1; ELISA, 500 μM ATP; read-out: TrkA Enzyme IC50
How it was run: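 His-tagged human TrkA cytoplasmic domain phosphorylated poly(Glu,Ala,Tyr 6:3:1) coated at 0.025 mg/mL, with inhibitors present. Phosphotyrosine was detected with HRP-conjugated PY20 antibody (0.2 μg/mL) and TMB, read as absorbance at 450 nm after phosphoric acid stop.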

Human Jak2 kinase domain = Human Jak2 kinase domain (Homo sapiens (Human), UniProt O60674); assay: Jak2 Inhibition Assay (Omnia kinase assay); type: biochemical; details: Table 1; 500 μM ATP; >1000 nM when >50% inhibition not observed at 1000 nM; read-out: Jak2 Enzyme IC50
Chain of Human Jak2 kinase domain (O60674 808-1132): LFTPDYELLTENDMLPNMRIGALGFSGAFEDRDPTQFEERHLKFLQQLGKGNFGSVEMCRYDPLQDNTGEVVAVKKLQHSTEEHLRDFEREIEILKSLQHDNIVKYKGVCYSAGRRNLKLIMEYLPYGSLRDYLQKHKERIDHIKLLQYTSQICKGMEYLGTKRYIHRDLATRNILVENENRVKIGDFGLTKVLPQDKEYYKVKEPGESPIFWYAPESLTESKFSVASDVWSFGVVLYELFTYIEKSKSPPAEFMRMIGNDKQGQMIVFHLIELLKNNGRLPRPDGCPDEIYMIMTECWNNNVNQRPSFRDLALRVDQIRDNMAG

Chain of TrkA (histidine-tagged recombinant human TrkA, cytoplasmic domain) (P04629 440-796): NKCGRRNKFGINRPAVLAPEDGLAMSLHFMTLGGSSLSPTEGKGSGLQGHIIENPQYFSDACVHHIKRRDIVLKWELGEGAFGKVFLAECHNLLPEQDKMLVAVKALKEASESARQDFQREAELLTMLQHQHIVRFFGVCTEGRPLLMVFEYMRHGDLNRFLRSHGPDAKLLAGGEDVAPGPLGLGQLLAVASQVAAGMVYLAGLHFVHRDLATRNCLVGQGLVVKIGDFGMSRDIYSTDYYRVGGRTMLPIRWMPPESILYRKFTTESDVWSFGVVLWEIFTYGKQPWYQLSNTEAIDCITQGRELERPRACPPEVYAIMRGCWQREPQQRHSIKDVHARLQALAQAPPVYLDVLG

Row | IC50 [1] [nM] | IC50 (Human Jak2 kinase domain) [nM] | Structure (SMILES)
1 | 11.7 | > 1000 | O=C(NC1CCC1)c1cnn2ccc(N3CCC[C@@H]3c3cncc(F)c3)nc12 [Example 101, (R)-N-cyclobutyl-5-(2-(5-fluoropyridin-3-yl)pyrrolidin-1-yl)pyrazolo[1,5-a]pyrimidine-3-carboxamide]
2 | 5.2 | > 1000 | CC1(NC(=O)c2cnn3ccc(N4CCC[C@@H]4c4cncc(F)c4)nc23)CCC1 [Example 102, (R)-5-(2-(5-fluoropyridin-3-yl)pyrrolidin-1-yl)-N-(1-methylcyclobutyl)pyrazolo[1,5-a]pyrimidine-3-carboxamide]
3 | 87.8 | > 1000 | O=C(N[C@H]1CCC[C@@H]1O)c1cnn2ccc(N3CCC[C@@H]3c3cncc(F)c3)nc12 [Example 103, 5-((R)-2-(5-fluoropyridin-3-yl)pyrrolidin-1-yl)-N-((1S,2S)-2-hydroxycyclopentyl)pyrazolo[1,5-a]pyrimidine-3-carboxamide]
4 | 83.1 | > 1000 | O=C(N[C@H]1CCC[C@H]1O)c1cnn2ccc(N3CCC[C@@H]3c3cncc(F)c3)nc12 [Example 104, 5-((R)-2-(5-fluoropyridin-3-yl)pyrrolidin-1-yl)-N-((1S,2R)-2-hydroxycyclopentyl)pyrazolo[1,5-a]pyrimidine-3-carboxamide]
5 | 25.4 | > 1000 | O=C(N[C@H]1CC[C@H](O)C1)c1cnn2ccc(N3CCC[C@@H]3c3cncc(F)c3)nc12 [Example 105, 5-((R)-2-(5-fluoropyridin-3-yl)pyrrolidin-1-yl)-N-((1S,3S)-3-hydroxycyclopentyl)pyrazolo[1,5-a]pyrimidine-3-carboxamide]
6 | 16.4 | > 1000 | O=C(NC1(CO)CC1)c1cnn2ccc(N3CCC[C@@H]3c3cncc(F)c3)nc12 [Example 107, (R)-5-(2-(5-fluoropyridin-3-yl)pyrrolidin-1-yl)-N-(1-(hydroxymethyl)cyclopropyl)pyrazolo[1,5-a]pyrimidine-3-carboxamide]
7 | 1190 | > 1000 | O=C(c1cnn2ccc(N3CCC[C@@H]3c3cncc(F)c3)nc12)N1CC(O)C1 [Example 108, (R)-(5-(2-(5-fluoropyridin-3-yl)pyrrolidin-1-yl)pyrazolo[1,5-a]pyrimidin-3-yl)(3-hydroxyazetidin-1-yl)methanone]
8 | 36.7 | > 1000 | C[C@H](O)CNC(=O)c1cnn2ccc(N3CCC[C@@H]3c3cncc(F)c3)nc12 [Example 109, 5-((R)-2-(5-fluoropyridin-3-yl)pyrrolidin-1-yl)-N-((S)-2-hydroxypropyl)pyrazolo[1,5-a]pyrimidine-3-carboxamide]
9 | 37.2 | > 1000 | C[C@@H](O)CNC(=O)c1cnn2ccc(N3CCC[C@@H]3c3cncc(F)c3)nc12 [Example 110, 5-((R)-2-(5-fluoropyridin-3-yl)pyrrolidin-1-yl)-N-((R)-2-hydroxypropyl)pyrazolo[1,5-a]pyrimidine-3-carboxamide]
10 | 30.9 | > 1000 | O=C(NCCO)c1cnn2ccc(N3CCC[C@@H]3c3cncc(F)c3)nc12 [Example 112, (R)-5-(2-(5-fluoropyridin-3-yl)pyrrolidin-1-yl)-N-(2-hydroxyethyl)pyrazolo[1,5-a]pyrimidine-3-carboxamide]
11 | 3.2 | > 1000 | CC(NC(=O)c1cnn2ccc(N3CCCC3c3cncc(F)c3)nc12)C1CC1 [Example 113, N-(1-cyclopropylethyl)-5-((R)-2-(5-fluoropyridin-3-yl)pyrrolidin-1-yl)pyrazolo[1,5-a]pyrimidine-3-carboxamide]
12 | 15.3 | > 1000 | C[C@H](CO)NC(=O)c1cnn2ccc(N3CCC[C@@H]3c3cncc(F)c3)nc12 [Example 115, 5-((R)-2-(5-fluoropyridin-3-yl)pyrrolidin-1-yl)-N-((R)-1-hydroxypropan-2-yl)pyrazolo[1,5-a]pyrimidine-3-carboxamide]
13 | 26.2 | > 1000 | C[C@@H](CO)NC(=O)c1cnn2ccc(N3CCC[C@@H]3c3cncc(F)c3)nc12 [Example 116, 5-((R)-2-(5-fluoropyridin-3-yl)pyrrolidin-1-yl)-N-((S)-1-hydroxypropan-2-yl)pyrazolo[1,5-a]pyrimidine-3-carboxamide]
14 | 45 | > 1000 | NC(=O)c1cnn2ccc(N3CCC[C@@H]3c3cncc(F)c3)nc12 [Example 117, (R)-5-(2-(5-fluoropyridin-3-yl)pyrrolidin-1-yl)pyrazolo[1,5-a]pyrimidine-3-carboxamide]
15 | 22.8 | > 1000 | O=C(NC1CCC[C@@H]1O)c1cnn2ccc(N3CCCC3c3cncc(F)c3)nc12 (stereo partly drawn) [Example 120, 5-((R)-2-(5-fluoropyridin-3-yl)pyrrolidin-1-yl)-N-((trans)-2-hydroxycyclopentyl)pyrazolo[1,5-a]pyrimidine-3-carboxamide]
16 | 218 | > 1000 | O=C(c1cnn2ccc(N3CCC[C@@H]3c3cncc(F)c3)nc12)N1CCC1 [Example 126, (R)-azetidin-1-yl(5-(2-(5-fluoropyridin-3-yl)pyrrolidin-1-yl)pyrazolo[1,5-a]pyrimidin-3-yl)methanone]
17 | 2600 | > 1000 | O=C(c1cnn2ccc(N3CCC[C@@H]3c3cncc(F)c3)nc12)N1CC[C@H](O)C1 [Example 128, (5-((R)-2-(5-fluoropyridin-3-yl)pyrrolidin-1-yl)pyrazolo[1,5-a]pyrimidin-3-yl)((S)-3-hydroxypyrrolidin-1-yl)methanone]
18 | 44.4 | > 1000 | CC(C)(CO)NC(=O)c1cnn2ccc(N3CCC[C@@H]3c3cncc(F)c3)nc12 [Example 132, (R)-5-(2-(5-fluoropyridin-3-yl)pyrrolidin-1-yl)-N-(1-hydroxy-2-methylpropan-2-yl)pyrazolo[1,5-a]pyrimidine-3-carboxamide]

The next lines start with the compound.

Row | Structure (SMILES) | IC50 [1] [nM] | IC50 (Human Jak2 kinase domain) [nM]
19 | O=C(Nc1ccc(F)cn1)c1cnn2ccc(N3CCC[C@@H]3c3cncc(F)c3)nc12 [Example 95, (R)—N-(5-fluoropyridin-2-yl)-5-(2-(5-fluoropyridin-3-yl)pyrrolidin-1-yl)pyrazolo[1,5-a]pyrimidine-3-carboxamide] | 5.4 | > 1000
20 | O=C(NCC(F)CCl)c1cnn2ccc(N3CCC[C@@H]3c3cncc(F)c3)nc12 (stereo partly drawn) [Example 97, N-(3-chloro-2-fluoropropyl)-5-((R)-2-(5-fluoropyridin-3-yl)pyrrolidin-1-yl)pyrazolo[1,5-a]pyrimidine-3-carboxamide] | 6.2 | > 1000
21 | CC(C)(O)CNC(=O)c1cnn2ccc(N3CCC[C@@H]3c3cncc(F)c3)nc12 [Example 111, (R)-5-(2-(5-fluoropyridin-3-yl)pyrrolidin-1-yl)-N-(2-hydroxy-2-methylpropyl)pyrazolo[1,5-a]pyrimidine-3-carboxamide] | 37.8 | > 1000
22 | COCC(C)NC(=O)c1cnn2ccc(N3CCCC3c3cncc(F)c3)nc12 [Example 118, 5-((R)-2-(5-fluoropyridin-3-yl)pyrrolidin-1-yl)-N-(1-methoxypropan-2-yl)pyrazolo[1,5-a]pyrimidine-3-carboxamide] | 22.5 | > 1000
23 | COCC(O)CNC(=O)c1cnn2ccc(N3CCCC3c3cncc(F)c3)nc12 [Example 119, 5-((R)-2-(5-fluoropyridin-3-yl)pyrrolidin-1-yl)-N-(2-hydroxy-3-methoxypropyl)pyrazolo[1,5-a]pyrimidine-3-carboxamide] | 131 | > 1000
24 | CC(C)[C@@H](CO)NC(=O)c1cnn2ccc(N3CCC[C@@H]3c3cncc(F)c3)nc12 [Example 121, 5-((R)-2-(5-fluoropyridin-3-yl)pyrrolidin-1-yl)-N-((S)-1-hydroxy-3-methylbutan-2-yl)pyrazolo[1,5-a]pyrimidine-3-carboxamide] | 182 | > 1000
25 | CC(C)[C@H](CO)NC(=O)c1cnn2ccc(N3CCC[C@@H]3c3cncc(F)c3)nc12 [Example 122, 5-((R)-2-(5-fluoropyridin-3-yl)pyrrolidin-1-yl)-N-((R)-1-hydroxy-3-methylbutan-2-yl)pyrazolo[1,5-a]pyrimidine-3-carboxamide] | 33.2 | > 1000
26 | CC(C)(CO)CNC(=O)c1cnn2ccc(N3CCC[C@@H]3c3cncc(F)c3)nc12 [Example 125, (R)-5-(2-(5-fluoropyridin-3-yl)pyrrolidin-1-yl)-N-(3-hydroxy-2,2-dimethylpropyl)pyrazolo[1,5-a]pyrimidine-3-carboxamide] | 12.8 | > 1000
27 | O=C(c1cnn2ccc(N3CCC[C@@H]3c3cncc(F)c3)nc12)N1CC(CO)C1 [Example 127, (R)-(5-(2-(5-fluoropyridin-3-yl)pyrrolidin-1-yl)pyrazolo[1,5-a]pyrimidin-3-yl)(3-(hydroxymethyl)azetidin-1-yl)methanone] | 470 | > 1000
28 | C[C@@H](NC(=O)c1cnn2ccc(N3CCC[C@@H]3c3cncc(F)c3)nc12)C(F)(F)F [Example 129, 5-((R)-2-(5-fluoropyridin-3-yl)pyrrolidin-1-yl)-N-((R)-1,1,1-trifluoropropan-2-yl)pyrazolo[1,5-a]pyrimidine-3-carboxamide] | 8 | > 1000
29 | C[C@H](NC(=O)c1cnn2ccc(N3CCC[C@@H]3c3cncc(F)c3)nc12)C(F)(F)F [Example 130, 5-((R)-2-(5-fluoropyridin-3-yl)pyrrolidin-1-yl)-N-((S)-1,1,1-trifluoropropan-2-yl)pyrazolo[1,5-a]pyrimidine-3-carboxamide] | 1.7 | > 1000
30 | O=C(NCC(F)(F)F)c1cnn2ccc(N3CCC[C@@H]3c3cncc(F)c3)nc12 [Example 131, (R)-5-(2-(5-fluoropyridin-3-yl)pyrrolidin-1-yl)-N-(2,2,2-trifluoroethyl)pyrazolo[1,5-a]pyrimidine-3-carboxamide] | 5 | > 1000
